Assay results as given in the supplement of paper PMC8617591.

Legend:
[1] = test system: Mycobacterium tuberculosis Erdman (autoluminescent); experiment: FIC90 (Loewe) at 90% inhibition (log2); higher = more antagonistic
Description: (§1)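 DiaMOND equipotent two-drug combination dose responses against autoluminescent M. tuberculosis Erdman in 8 in vitro models. Read-out is OD600, or luminescence for the intracellular and dormancy models, normalised to untreated wells. Hill-fit Einf, AUC25 and GRinf are potency metrics; FIC50 and FIC90 are Loewe-additivity fractional inhibitory concentrations, given as log2 (negative = synergy). Replicates are averaged.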

[2] = test system: Mycobacterium tuberculosis Erdman (autoluminescent); experiment: FIC50 (Loewe) at 50% inhibition (log2); higher = more antagonistic
Description: as §1

[3] = test system: Mycobacterium tuberculosis Erdman (autoluminescent); experiment: Einf, fitted maximum growth inhibition of combination (fraction); higher = stronger maximal inhibition
Description: as §1

[4] = test system: Mycobacterium tuberculosis Erdman (autoluminescent); experiment: AUC25, normalised area under dose response up to IC25 (fraction (0-1)); higher = more potent at low dose
Description: as §1

[5] = test system: Mycobacterium tuberculosis Erdman (autoluminescent); experiment: GRinf, maximum normalised growth rate inhibition (unitless (-1 to 1)); higher = less effect (negative = killing)
Description: as §1

[6] = in vitro model: acidic pH 5.7, time point: terminal (~4-5 doublings, model-specific)
[7] = in vitro model: butyrate, time point: constant (~7 days, model-specific)
[8] = in vitro model: butyrate, time point: terminal (~4-5 doublings, model-specific)
[9] = in vitro model: cholesterol 0.05 mM, time point: terminal (~4-5 doublings, model-specific)
[10] = in vitro model: cholesterol-high 0.2 mM, time point: constant (~7 days, model-specific)
[11] = in vitro model: cholesterol-high 0.2 mM, time point: terminal (~4-5 doublings, model-specific)
[12] = in vitro model: dormancy (butyrate + nitrate, low O2), time point: constant (~7 days, model-specific)
[13] = in vitro model: dormancy (butyrate + nitrate, low O2), time point: terminal (~4-5 doublings, model-specific)
[14] = in vitro model: intracellular J774, time point: constant = terminal
[15] = in vitro model: standard 7H9 glycerol, time point: constant = terminal
[16] = in vitro model: valerate, time point: constant (~7 days, model-specific)
[17] = in vitro model: valerate, time point: terminal (~4-5 doublings, model-specific)
[18] = in vitro model: acidic pH 5.7, time point: constant (~7 days, model-specific)
[19] = in vitro model: cholesterol 0.05 mM, time point: constant (~7 days, model-specific)

CC(C)/N=c1\cc2n(-c3ccc(Cl)cc3)c3ccccc3nc-2cc1Nc1ccc(Cl)cc1 [clofazimine] + CC(=O)NC[C@H]1CN(c2ccc(N3CCOCC3)c(F)c2)C(=O)O1 [linezolid]
FIC90 [1, 6]: 0.0194 | FIC90 [1, 7]: 0.875 | FIC90 [1, 8]: 0.85 | FIC90 [1, 9]: 1.4 | FIC90 [1, 10]: 1.38 | FIC90 [1, 11]: 0.449 | FIC90 [1, 12]: 0.93 | FIC90 [1, 13]: 0.839 | FIC90 [1, 14]: 0.457 | FIC90 [1, 15]: 0.696 | FIC90 [1, 16]: 0.827 | FIC90 [1, 17]: 0.597 | FIC50 [2, 18]: 0.346 | FIC50 [2, 6]: 0.329 | FIC50 [2, 7]: 0.573 | FIC50 [2, 8]: 0.626 | FIC50 [2, 19]: -0.262 | FIC50 [2, 9]: -0.033 | FIC50 [2, 10]: 0.143 | FIC50 [2, 11]: -0.317 | FIC50 [2, 12]: 1.67 | FIC50 [2, 13]: 1.05 | FIC50 [2, 15]: 0.286 | FIC50 [2, 16]: -0.104 | FIC50 [2, 17]: 0.165 | Einf [3, 18]: 0.864 | Einf [3, 6]: 0.973 | Einf [3, 7]: 0.957 | Einf [3, 8]: 0.98 | Einf [3, 19]: 0.747 | Einf [3, 9]: 0.951 | Einf [3, 10]: 0.917 | Einf [3, 11]: 0.994 | Einf [3, 12]: 0.901 | Einf [3, 13]: 0.981 | Einf [3, 14]: 0.855 | Einf [3, 15]: 0.979 | Einf [3, 16]: 0.925 | Einf [3, 17]: 0.944 | AUC25 [4, 18]: 0.0778 | AUC25 [4, 6]: 0.111 | AUC25 [4, 7]: 0.113 | AUC25 [4, 8]: 0.0908 | AUC25 [4, 19]: 0.152 | AUC25 [4, 9]: 0.164 | AUC25 [4, 10]: 0.131 | AUC25 [4, 11]: 0.133 | AUC25 [4, 12]: 0.0454 | AUC25 [4, 13]: 0.0463 | AUC25 [4, 15]: 0.117 | AUC25 [4, 16]: 0.148 | AUC25 [4, 17]: 0.0982 | GRinf [5, 18]: -0.00597 | GRinf [5, 6]: -0.305 | GRinf [5, 7]: -0.158 | GRinf [5, 8]: -0.142 | GRinf [5, 19]: -0.0419 | GRinf [5, 9]: -0.35 | GRinf [5, 10]: -0.536 | GRinf [5, 11]: -0.854 | GRinf [5, 12]: 0.239 | GRinf [5, 13]: -0.123 | GRinf [5, 14]: -0.0533 | GRinf [5, 15]: -0.276 | GRinf [5, 16]: -0.186 | GRinf [5, 17]: -0.107

CC[C@@H](CO)NCCN[C@@H](CC)CO [ethambutol] + CC(=O)NC[C@H]1CN(c2ccc(N3CCOCC3)c(F)c2)C(=O)O1 [linezolid]
FIC90 [1, 6]: 0.495 | FIC90 [1, 8]: 0.243 | FIC90 [1, 11]: 1.03 | FIC90 [1, 13]: 0.335 | FIC90 [1, 14]: 0.585 | FIC90 [1, 17]: 0.0781 | FIC50 [2, 18]: 0.0133 | FIC50 [2, 6]: 1.24 | FIC50 [2, 7]: 0.492 | FIC50 [2, 8]: 0.333 | FIC50 [2, 19]: 0.049 | FIC50 [2, 9]: -0.615 | FIC50 [2, 10]: 0.732 | FIC50 [2, 11]: 0.569 | FIC50 [2, 12]: 0.653 | FIC50 [2, 13]: -0.181 | FIC50 [2, 15]: 0.485 | FIC50 [2, 16]: -0.233 | FIC50 [2, 17]: 0.293 | Einf [3, 18]: 0.79 | Einf [3, 6]: 0.957 | Einf [3, 7]: 0.88 | Einf [3, 8]: 0.934 | Einf [3, 19]: 0.741 | Einf [3, 9]: 0.952 | Einf [3, 10]: 0.935 | Einf [3, 11]: 1 | Einf [3, 12]: 0.811 | Einf [3, 13]: 0.943 | Einf [3, 14]: 0.948 | Einf [3, 15]: 0.892 | Einf [3, 16]: 0.817 | Einf [3, 17]: 0.909 | AUC25 [4, 18]: 0.0997 | AUC25 [4, 6]: 0.0783 | AUC25 [4, 7]: 0.0872 | AUC25 [4, 8]: 0.0727 | AUC25 [4, 19]: 0.151 | AUC25 [4, 9]: 0.155 | AUC25 [4, 10]: 0.106 | AUC25 [4, 11]: 0.104 | AUC25 [4, 12]: 0.125 | AUC25 [4, 13]: 0.106 | AUC25 [4, 15]: 0.0844 | AUC25 [4, 16]: 0.091 | AUC25 [4, 17]: 0.0651 | GRinf [5, 18]: -0.243 | GRinf [5, 6]: -0.168 | GRinf [5, 7]: 0.121 | GRinf [5, 8]: 0.126 | GRinf [5, 19]: -0.189 | GRinf [5, 9]: -0.325 | GRinf [5, 10]: -0.702 | GRinf [5, 11]: -0.951 | GRinf [5, 12]: 0.461 | GRinf [5, 13]: -0.432 | GRinf [5, 14]: -0.511 | GRinf [5, 15]: 0.15 | GRinf [5, 16]: 0.187 | GRinf [5, 17]: 0.127

COc1nc2ccc(Br)cc2cc1[C@@H](c1ccccc1)[C@@](O)(CCN(C)C)c1cccc2ccccc12 [bedaquiline] + CO[C@H]1/C=C/O[C@@]2(C)Oc3c(C)c(O)c4c(O)c(c(/C=N/N5CCN(C6CCCC6)CC5)c(O)c4c3C2=O)NC(=O)/C(C)=C\C=C\[C@H](C)[C@H](O)[C@@H](C)[C@@H](O)[C@@H](C)[C@H](OC(C)=O)[C@@H]1C [rifapentine]
FIC90 [1, 18]: 0.172 | FIC90 [1, 6]: 0.396 | FIC90 [1, 7]: 0.365 | FIC90 [1, 8]: 0.362 | FIC90 [1, 9]: 0.609 | FIC90 [1, 10]: -0.159 | FIC90 [1, 11]: 0.259 | FIC90 [1, 12]: 1 | FIC90 [1, 13]: 0.635 | FIC90 [1, 14]: 0.658 | FIC90 [1, 15]: 0.112 | FIC90 [1, 17]: 0.464 | FIC50 [2, 18]: 0.322 | FIC50 [2, 6]: 0.392 | FIC50 [2, 7]: 0.485 | FIC50 [2, 8]: 0.482 | FIC50 [2, 19]: 0.249 | FIC50 [2, 9]: 0.341 | FIC50 [2, 10]: 0.211 | FIC50 [2, 11]: 0.367 | FIC50 [2, 12]: 0.549 | FIC50 [2, 13]: 0.481 | FIC50 [2, 15]: 0.236 | FIC50 [2, 16]: 0.621 | FIC50 [2, 17]: 0.678 | Einf [3, 18]: 0.969 | Einf [3, 6]: 0.998 | Einf [3, 7]: 0.933 | Einf [3, 8]: 0.976 | Einf [3, 19]: 0.787 | Einf [3, 9]: 0.93 | Einf [3, 10]: 0.969 | Einf [3, 11]: 1 | Einf [3, 12]: 0.941 | Einf [3, 13]: 0.981 | Einf [3, 14]: 0.943 | Einf [3, 15]: 0.949 | Einf [3, 16]: 0.899 | Einf [3, 17]: 0.955 | AUC25 [4, 18]: 0.0995 | AUC25 [4, 6]: 0.0881 | AUC25 [4, 7]: 0.0889 | AUC25 [4, 8]: 0.0717 | AUC25 [4, 19]: 0.119 | AUC25 [4, 9]: 0.0716 | AUC25 [4, 10]: 0.0555 | AUC25 [4, 11]: 0.0435 | AUC25 [4, 12]: 0.072 | AUC25 [4, 13]: 0.0609 | AUC25 [4, 15]: 0.0637 | AUC25 [4, 16]: 0.0652 | AUC25 [4, 17]: 0.0336 | GRinf [5, 18]: -0.693 | GRinf [5, 6]: -0.38 | GRinf [5, 7]: -0.0857 | GRinf [5, 8]: -0.102 | GRinf [5, 19]: -0.201 | GRinf [5, 9]: -0.223 | GRinf [5, 10]: -0.659 | GRinf [5, 11]: -0.615 | GRinf [5, 12]: 0.16 | GRinf [5, 13]: -0.111 | GRinf [5, 14]: -0.214 | GRinf [5, 15]: -0.0779 | GRinf [5, 16]: -0.0573 | GRinf [5, 17]: -0.0667
